Source: PMC10671697, “Drug-Induced Conformational Dynamics of P-Glycoprotein Underlies the Transport of Camptothecin Analogs” (International Journal of Molecular Sciences, 2023)
Where “and” joins values, the source holds several entries; their conditions need not be identical. Equal values may be shown once. Read-outs that look alike come from different tables or passages of the source.

What was measured:
[1] = biological target: T1, wild-type mouse Pgp (MDR3) (Mus musculus, UniProt P21447)
Description: Acrylamide quenching of protein fluorescence was used to probe drug-induced Pgp conformational changes indirectly. For this assay, a solution containing 1 µM of Pgp reconstituted into liposomes was titrated with acrylamide. The preparation was carried out in Chifflet buffer (pH 7.4) supplemented with 2 mM DTT. The assay was performed both in the presence and absence of ligand(s). […] The fluorescence intensities were corrected for dilution, background, and inner filter effects using Equation (3). A Stern–Volmer plot of Fo(corrected)/F(corrected) versus the concentration of acrylamide added was generated. The slope of the curve, an indicator of the degree of quenching, is related to the Stern–Volmer’s constant (Ksv) by Equation (4). (4) Focorrected/Fcorrected=1+KsvQ where [Q] is the concentration of the quencher, acrylamide.

[2] = biological target: T1, wild-type mouse Pgp (MDR3); remark: listed apart in the source
Text: For a molecule that binds to the receptor, only the protons within a distance of 5 Å from the saturated protein receive noticeable saturation transfer. The saturation transferred from the receptor to the bound ligands can be detected upon dissociation as a saturation transfer difference (STD). The observed degree of saturation transferred inversely correlates with the distance between the ligand and the receptor and reflects the degree of interaction. Due to the high lipophilicity of most Pgp substrates, there is a high possibility of non-specific interactions between the ligands and liposomes used, which can interfere with the STD NMR spectrum observed. The STD NMR spectrum of the drug in the presence of liposomes was performed and subtracted from the STD ^1H NMR spectrum of the ligand in the presence of proteins reconstituted into liposomes to yield a STDD. […] All NMR experiments were carried out at 25 °C (unless otherwise stated) on a Varian INOVA 600 MHz NMR spectrometer installed with a 1H-detect broadband probe {HX}.
The control samples were identically prepared with liposomes instead of Pgp reconstituted in liposomes. […] The difference between the on-resonance and the off-resonance created the STD ^1H NMR spectrum. A control experiment consisting of liposomes and drugs was obtained under identical conditions and subtracted from the ^1H STD NMR spectrum of the reconstituted Pgp sample with the drug to generate the STDD ^1H NMR spectrum. […] The STDD amplification factor was calculated using Equation (5) below. (5) STDD Amplication Factor=l/PΔl/Io where Io is the amplitude of the ^1H NMR peaks, l is the ligand concentration, and P is the protein concentration.

[3] = biological target: T1, wild-type mouse Pgp (MDR3); remark: listed apart in the source
Description: Atomic force microscopy (AFM) has been adapted for analyzing protein dynamics and structure, which has enabled the determination of conformational changes induced by ligands. In this study, Pgp reconstituted into liposomes was diluted in imaging buffer (20 mM HEPES, 100 mM NaCl, and 5 mM MgCl2; pH 7.4) to 100 nM. About 90 µL droplets of the diluted Pgp solution were deposited on cleaned […] (Corning, Corning, NY, USA), followed by 30 min of incubation at 25 °C. This step caused the proteoliposomes to rupture, forming a planar lipid bilayer on top of the mica surface. The samples were rinsed at least five times using the buffer exchange technique, wherein 90 µL of buffer was utilized. Next, AFM imaging of the EC-side and C-side domains of Pgp protrusions above the lipid bilayer was performed as previously described. For each of the selected CPTs used in this study, AFM imaging of the ligand-free Pgp (apoPgp) was performed first, then ligand was added, and imaging was repeated in nominally the same area. […] Only membrane-external protrusions that could be positively assigned as either EC or C-side domain features of Pgp were analyzed. All the AFM images were obtained in an imaging buffer at about 30 °C in tapping mode with biolever mini tips (BL-AC40TS, Olympus, Tokyo, Japan) installed on a commercial instrument (Asylum Research Cypher, Santa Barbara, CA, USA). The tip-sample force was kept below 100 pN to minimize the probability of protein distortion. The AFM images were analyzed with custom software written in Igor Pro 7 (Wavemetrics, Portland, OR, USA), as described previously. Kernel density estimation with Epanechnikov kernels in Igor Pro 7 software was used to generate smoothed histograms for further analysis. The histograms were fitted with a summation of Gaussian distributions. The Bayesian information criterion was used to select the best model after fitting with 1–5 Gaussian distributions as described previously (see Supporting Information).

[4] = biological target: T1, wild-type mouse Pgp (MDR3); details: for Decrease of protein fluorescence from the initial fluorescence: ex 295 nm; for Decrease of protein fluorescence: saturating AMPPNP
[5] = tested on: LS513 cells; details: LS513 cells treated with BCRP and MRP2 inhibitors, versus SN-38; cited from earlier work
[6] = biological target: T1, wild-type mouse Pgp (MDR3); assay: biochemical
[7] = versus TPT; cited from earlier work
[8] = second-line chemotherapy, versus TPT; cited from earlier work
[9] = tested on: human tumor xenograft models; details: different human tumor xenograft models, versus TPT; cited from earlier work
[10] = 800 µM drug, 1 µM Pgp in liposomes, 25 °C

T1 sequence (P21447 whole entry): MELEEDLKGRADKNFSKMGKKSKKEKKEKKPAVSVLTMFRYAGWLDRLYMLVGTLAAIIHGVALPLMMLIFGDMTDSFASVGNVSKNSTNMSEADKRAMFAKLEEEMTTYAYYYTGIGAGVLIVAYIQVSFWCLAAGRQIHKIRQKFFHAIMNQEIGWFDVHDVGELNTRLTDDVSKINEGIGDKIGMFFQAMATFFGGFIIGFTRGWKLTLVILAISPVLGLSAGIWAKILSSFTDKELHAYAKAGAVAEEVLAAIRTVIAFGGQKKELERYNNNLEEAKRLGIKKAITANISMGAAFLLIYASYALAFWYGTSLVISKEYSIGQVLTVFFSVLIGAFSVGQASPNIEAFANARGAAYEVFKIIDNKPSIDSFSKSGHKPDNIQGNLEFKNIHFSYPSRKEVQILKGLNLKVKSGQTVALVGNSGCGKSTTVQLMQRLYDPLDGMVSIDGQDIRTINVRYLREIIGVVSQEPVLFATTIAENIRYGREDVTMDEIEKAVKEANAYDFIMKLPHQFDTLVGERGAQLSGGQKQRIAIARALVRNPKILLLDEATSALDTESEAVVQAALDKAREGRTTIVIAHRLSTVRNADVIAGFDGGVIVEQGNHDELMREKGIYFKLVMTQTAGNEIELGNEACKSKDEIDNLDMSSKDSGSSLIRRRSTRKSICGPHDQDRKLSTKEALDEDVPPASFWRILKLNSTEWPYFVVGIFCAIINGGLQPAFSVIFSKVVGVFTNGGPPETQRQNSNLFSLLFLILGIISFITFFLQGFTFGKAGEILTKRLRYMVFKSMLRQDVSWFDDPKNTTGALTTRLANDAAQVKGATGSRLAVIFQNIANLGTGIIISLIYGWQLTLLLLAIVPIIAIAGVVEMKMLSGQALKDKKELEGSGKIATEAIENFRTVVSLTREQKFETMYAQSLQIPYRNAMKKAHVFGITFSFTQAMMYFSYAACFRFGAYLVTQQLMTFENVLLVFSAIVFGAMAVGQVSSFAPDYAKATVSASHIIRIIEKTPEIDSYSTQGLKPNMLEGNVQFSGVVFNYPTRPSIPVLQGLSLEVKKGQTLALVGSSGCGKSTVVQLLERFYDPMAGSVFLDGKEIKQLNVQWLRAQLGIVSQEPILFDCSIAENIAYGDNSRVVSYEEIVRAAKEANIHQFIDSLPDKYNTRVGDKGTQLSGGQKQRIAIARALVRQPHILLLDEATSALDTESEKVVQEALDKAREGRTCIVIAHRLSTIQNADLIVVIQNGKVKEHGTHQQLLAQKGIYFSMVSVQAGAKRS

## Nc1ncnc2c1ncn2[C@@H]1O[C@H](COP(=O)([O-])OP(=O)([O-])NP(=O)([O-])[O-])[C@@H](O)[C@H]1O.[Li+].[Li+].[Li+].[Li+] [AMPPNP, Adenosine 5′-(β,γ-imido)triphosphate lithium salt]
[1]; Pgp with saturating (3.2 mM) AMPPNP alone, no CPT
  Ksv of acrylamide quenching of Pgp fluorescence: 0.84 ± 0.07 M⁻¹

## CC(=O)N[C@@H](Cc1c[nH]c2ccccc12)C(N)=O [NATA, N-acetyl-L-tryptophanamide]
[1]; positive control, fully solvent-exposed tryptophan, no Pgp
  Ksv of acrylamide quenching of NATA fluorescence: 15.43 ± 0.37 M⁻¹

## CC[C@@]1(O)C(=O)OCc2c1cc1n(c2=O)Cc2cc3c(CN(C)C)c(O)ccc3nc2-1 [TPT, Topotecan]
[1]; 60 µM drug, 3.2 mM AMPPNP
  Ksv of acrylamide quenching of Pgp fluorescence: 0.71 ± 0.04 M⁻¹
[1]; 60 µM drug, absence of AMPPNP, apoPgp 1.58 ± 0.03
  Ksv of acrylamide quenching of Pgp fluorescence: 0.78 ± 0.06 M⁻¹
[1]; 60 µM drug, no AMPPNP (Figure 4)
  Decrease in the Ksv value of apoPgp (acrylamide quenching): ~50%
[2]; [10]
  Average STDD amplification factor: around 45
  Highest STDD amplification factor: approximately 133
[3]; 60 µM drug
  Probability density difference (∆PD) of tallest population relative to apo: 4.11 × 10^7
[3]; 60 µM drug, apo 74 ± 9 Å
  C-side height of tallest Pgp population in presence of drug: 75 ± 7 Å
[4]; 100 µM drug, absence of AMPPNP
  Decrease of protein fluorescence from the initial fluorescence: approximately 71.6%
[4]; 100 µM drug
  Decrease of protein fluorescence: 61.0%
[4]; absence of AMPPNP
  Stern–Volmer constant (Ksv) of drug-induced Pgp fluorescence quenching: 0.41 ± 0.09 µM⁻¹
[4]; presence vs absence of AMPPNP
  Change of affinity for Pgp in the presence of AMPPNP: diminished by over threefold
[4]; saturating (3.2 mM) AMPPNP
  Stern–Volmer constant (Ksv) of drug-induced Pgp fluorescence quenching: 0.06 ± 0.01 µM⁻¹
[5]
  Relative efflux rate, times higher than SN-38: approximately 4 times
[6]; absence of AMPPNP
  Kd: 2.47 ± 0.57 µM
[6]; saturating (3.2 mM) AMPPNP
  Kd: 16 ± 3.27 µM

## CCc1c2c(nc3ccc(O)cc13)-c1cc3c(c(=O)n1C2)COC(=O)[C@]3(O)CC [SN-38]
[1]; 30 µM drug, 3.2 mM AMPPNP
  Ksv of acrylamide quenching of Pgp fluorescence: 0.81 ± 0.08 M⁻¹
[1]; 30 µM drug, absence of AMPPNP, apoPgp 1.58 ± 0.03
  Ksv of acrylamide quenching of Pgp fluorescence: 1.12 ± 0.02 M⁻¹
[1]; 30 µM drug, no AMPPNP (Figure 4)
  Decrease in the Ksv value of apoPgp (acrylamide quenching): ~ 28%
[3]; 30 µM drug
  Probability density difference (∆PD) of tallest population relative to apo: −1.08 × 10^7
[3]; 30 µM drug, apo 84 ± 5 Å
  C-side height of tallest Pgp population in presence of drug: 78 ± 7 Å
[4]; 60 µM drug, absence of AMPPNP
  Decrease of protein fluorescence from the initial fluorescence: ~40.6%
[4]; 60 µM drug
  Decrease of protein fluorescence: 38.8%
[4]; absence of AMPPNP
  Stern–Volmer constant (Ksv) of drug-induced Pgp fluorescence quenching: 0.28 ± 0.09 µM⁻¹
[4]; presence vs absence of AMPPNP
  Change of affinity for Pgp in the presence of AMPPNP: diminished by over threefold
[4]; saturating (3.2 mM) AMPPNP
  Stern–Volmer constant (Ksv) of drug-induced Pgp fluorescence quenching: 0.076 ± 0.02 µM⁻¹
[7]
  Fold higher cellular retention than TPT: > 2 fold
[6]; absence of AMPPNP
  Kd: 3.53 ± 1.14 µM
[6]; saturating (3.2 mM) AMPPNP
  Kd: 13.2 ± 4.23 µM

## CCc1c2c(nc3ccc(OC(=O)N4CCC(N5CCCCC5)CC4)cc13)-c1cc3c(c(=O)n1C2)COC(=O)[C@]3(O)CC [IRT, Irinotecan]
[1]
  Decrease in the Ksv value of apoPgp (acrylamide quenching): ~ 20%
  Ksv of acrylamide quenching of Pgp fluorescence: 0.83 ± 0.05 and 0.83 ± 0.05 M^−1
[2]
  Highest STDD amplification factor: ~81
[3]; 100 µM drug, apo 76 ± 9 Å
  C-side height of tallest Pgp population in presence of drug: 70 ± 10 Å
[4]
  Change of affinity for Pgp in the presence of AMPPNP: diminished by over threefold
  Stern–Volmer constant (Ksv) of drug-induced Pgp fluorescence quenching: 0.07 ± 0.01 µM⁻¹
[8]
  Survival rate of patients compared with TPT: higher survival rate
[9]
  Efficacy compared with TPT: greater efficacy
